In patent US6525053B1, “Prostaglandin endoperoxide H synthase biosynthesis inhibitors” (Abbott Laboratories, priority 1997, dated 2003):

Legend:
[1] = target: T1, recombinant human Cox-2 (Homo sapiens, UniProt P35354); assay: Recombinant human PGHS-2 (Cox-2) enzyme assay, PGE2 by EIA; assay type: biochemical; settings: at 1000 nM
T1 construct: made in house; host or cells: baculovirus/Sf9 insect cells (microsomes)
T1 sequence (P35354 18-604): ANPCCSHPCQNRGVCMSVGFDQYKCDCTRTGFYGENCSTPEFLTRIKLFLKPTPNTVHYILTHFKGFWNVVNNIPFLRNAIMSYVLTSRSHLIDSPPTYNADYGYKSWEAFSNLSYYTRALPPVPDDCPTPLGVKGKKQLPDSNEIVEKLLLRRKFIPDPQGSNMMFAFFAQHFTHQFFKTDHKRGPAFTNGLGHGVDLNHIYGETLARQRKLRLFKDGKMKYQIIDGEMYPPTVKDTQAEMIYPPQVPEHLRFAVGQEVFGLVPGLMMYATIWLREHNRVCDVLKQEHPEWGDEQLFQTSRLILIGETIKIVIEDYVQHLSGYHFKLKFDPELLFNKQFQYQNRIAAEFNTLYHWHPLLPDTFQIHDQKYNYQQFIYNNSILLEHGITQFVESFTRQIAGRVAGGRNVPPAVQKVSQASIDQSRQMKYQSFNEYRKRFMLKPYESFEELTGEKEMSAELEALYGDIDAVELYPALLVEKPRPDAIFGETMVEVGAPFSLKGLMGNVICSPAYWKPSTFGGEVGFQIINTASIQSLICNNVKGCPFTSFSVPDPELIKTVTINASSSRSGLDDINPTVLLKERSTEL
Description: To compare the mean responses of the treatment groups, analysis of variance was applied. Percent inhibition values were determined by comparing the individual treatment mean values to the mean of the control group. Linear regression was used to estimate IC50's/ED50's in appropriate assays.
EIA reagents for prostaglandin determination were purchased from Perseptive Diagnostics, (Cambridge, Mass.). PGE2 levels in lavage fluids were determined after the samples were dried under nitrogen and reconstituted with assay buffer. PGE2 levels in enzyme assays or cell culture media were measured against standards prepared in the same milieu. The immunoassays were conducted as recommended by the manufacturer. The EIA was conducted in 96 well microtiter plates (Nunc Roskilde, Denmark) and optical density was measured using a microplate reader (Vmax, Molecular Devices Corp., Menlo Park, Calif.).
Inhibition of prostaglandin biosynthesis in vitro was evaluated using recombinant human Cox-1 (r-hu Cox1) and Cox-2 (r-hu Cox2) enzyme assays. […] PGE2 production in the presence and absence of the drug was determined by EIA analysis. The EIA was conducted in 96 well microtiter plates (Nunc Roskilde, Denmark) and optical density was measured using a microplate reader (Vmax, Molecular Devices Corp., Menlo Park, Calif.). […] PGE2 levels were measured against standards prepared in the same milieu. […]

melting point	RHUCX2 Cox-2 percent inhibition [1]	Compound
260 to 262 °C	–	CS(=O)(=O)c1ccc(-c2cc(=O)[nH]nc2-c2ccc(F)cc2)cc1 [Example 6, 5-(4-Methylsulfonylphenyl)-6-(4-fluorophenyl)-3(2H)-pyridazinone]
185 to 186 °C	–	CC(c1ccc(F)cc1)n1nc(-c2ccc(F)cc2)c(-c2ccc(S(C)(=O)=O)cc2)cc1=O (stereo not drawn) [Example 12, 2-(4-Fluoro-α-methylbenzyl)-5-(4-methylsulfonylphenyl)-6-(4-fluorophenyl)-3(2H)-pyridazinone]
155 to 157 °C	–	CCCn1nc(-c2ccc(F)cc2)c(-c2ccc(S(C)(=O)=O)cc2)cc1=O [Example 13, 2-(n-Propyl)-5-(4-methylsulfonylphenyl)-6-(4-fluorophenyl)-3(2H)-pyridazinone]
65 to 67 °C	–	CCCCCn1nc(-c2ccc(F)cc2)c(-c2ccc(S(C)(=O)=O)cc2)cc1=O [Example 14, 2-(n-Pentyl)-5-(4-methylsulfonylphenyl)-6-(4-fluorophenyl)-3(2H)-pyridazinone]
175 to 176 °C	–	CS(=O)(=O)c1ccc(-c2cc(=O)n(CC3CCCCC3)nc2-c2ccc(F)cc2)cc1 [Example 15, 2-Cyclohexylmethyl-5-(4-methylsulfonylphenyl)-6-(4-fluorophenyl)-3(2H)-pyridazin-one]
168 to 169 °C	–	C#CCn1nc(-c2ccc(F)cc2)c(-c2ccc(S(C)(=O)=O)cc2)cc1=O [Example 17, 2-Propargyl-5-(4-methylsulfonylphenyl)-6-(4-fluorophenyl)-3(2H)-pyridazinone]
76 to 77 °C	–	CS(=O)(=O)c1ccc(-c2cc(=O)n(CC3CCCC3)nc2-c2ccc(F)cc2)cc1 [Example 24, 2-Cyclopentylmethyl-5-(4-methylsulfonylphenyl)-6-(4-fluorophenyl)-3(2H)-pyridazinone]

The next lines start with the compound.

Compound	melting point	RHUCX2 Cox-2 percent inhibition [1]
CS(=O)(=O)c1ccc(-c2cc(=O)n(Cc3ccccc3)nc2-c2ccc(F)cc2)cc1 [Example 7, 2-Benzyl-5-(4-methylsulfonylphenyl)-6-(4-fluorophenyl)-3(2H)-pyridazinone]	172 to 174 °C	–
Cn1nc(-c2ccc(F)cc2)c(-c2ccc(S(C)(=O)=O)cc2)cc1=O [Example 8, 2-Methyl-5-(4-methylsulfonylphenyl)-6-(4-fluorophenyl)-3(2H)-pyridazinone]	181 to 182 °C	–
CCn1nc(-c2ccc(F)cc2)c(-c2ccc(S(C)(=O)=O)cc2)cc1=O [Example 9, 2-Ethyl-5-(4-methylsulfonylphenyl)-6-(4-fluorophenyl)-3(2H)-pyridazinone]	177 to 179 °C	–
CS(=O)(=O)c1ccc(-c2cc(=O)n(Cc3ccc(F)cc3)nc2-c2ccc(F)cc2)cc1 [Example 10, 2-(4-Fluorobenzyl)-5-(4-methylsulfonylphenyl)-6-(4-fluorophenyl)-3(2H)-pyridazinone]	150 to 151 °C	–
CCCCn1nc(-c2ccc(F)cc2)c(-c2ccc(S(C)(=O)=O)cc2)cc1=O [Example 11, 2-(n-Butyl)-5-(4-methylsulfonylphenyl)-6-(4-fluorophenyl)-3(2H)-pyridazinone]	111 to 113 °C	–
CS(=O)(=O)c1ccc(-c2cc(=O)n(CC(=O)c3ccccc3)nc2-c2ccc(F)cc2)cc1 [Example 16, 2-Phenacyl-5-(4-methylsulfonylphenyl)-6-(4-fluorophenyl)-3(2H)-pyridazinone]	178 to 180 °C	–
CS(=O)(=O)c1ccc(-c2cc(=O)n(C3CCCCC3)nc2-c2ccc(F)cc2)cc1 [Example 18, 2-Cyclohexyl-5-(4-methylsulfonylphenyl)-6-(4-fluorophenyl)-3(2H)-pyridazinone]	86 to 90 °C	–
CC#CCn1nc(-c2ccc(F)cc2)c(-c2ccc(S(C)(=O)=O)cc2)cc1=O [Example 19, 2-(2-Butyn-1-yl)-5-(4-methylsulfonylphenyl)-6-(4-fluorophenyl)-3(2H)-pyridazinone]	81 to 82 °C	–
CS(=O)(=O)c1ccc(-c2cc(=O)n(CC3CCC3)nc2-c2ccc(F)cc2)cc1 [Example 20, 2-(Cyclobutylmethyl)-5-(4-methylsulfonylphenyl)-6-(4-fluorophenyl)-3(2H)-pyridazinone]	74 to 76 °C	–
CC(C)=CCn1nc(-c2ccc(F)cc2)c(-c2ccc(S(C)(=O)=O)cc2)cc1=O [Example 21]	71 to 72 °C	–
CS(=O)(=O)c1ccc(-c2cc(=O)n(CC(F)(F)F)nc2-c2ccc(F)cc2)cc1 [Example 22, 2-(2,2,2-Trifluoroethyl)-5-(4-methylsulfonylphenyl)-6-(4-fluorphenyl)-3(2H)-pyridazinone]	–	46 @ 1000%
CS(=O)(=O)c1ccc(-c2cc(=O)n(CC3CC3)nc2-c2ccc(F)cc2)cc1 [Example 23, 2-(Cyclopropylmethyl)-5-(4-methylsulfonylphenyl)-6-(4-fluorophenyl)-3(2H)-pyridazinone]	130 to 132 °C	–
CS(=O)(=O)c1ccc(-c2cc(=O)n(C3CCCC3)nc2-c2ccc(F)cc2)cc1 [Example 25, 2-Cyclopentyl-5-(4-methylsulfonylphenyl)-6-(4-fluorophenyl)-3(2H)-pyridazinone]	191 to 192 °C	–
